For this assay, the target named is T1, human chemokine receptor CCR1 (Homo sapiens, UniProt P32246).
T1 construct: expressed in transfected cells; host or cells: HEK293T, transient
T1 sequence (P32246 1-355): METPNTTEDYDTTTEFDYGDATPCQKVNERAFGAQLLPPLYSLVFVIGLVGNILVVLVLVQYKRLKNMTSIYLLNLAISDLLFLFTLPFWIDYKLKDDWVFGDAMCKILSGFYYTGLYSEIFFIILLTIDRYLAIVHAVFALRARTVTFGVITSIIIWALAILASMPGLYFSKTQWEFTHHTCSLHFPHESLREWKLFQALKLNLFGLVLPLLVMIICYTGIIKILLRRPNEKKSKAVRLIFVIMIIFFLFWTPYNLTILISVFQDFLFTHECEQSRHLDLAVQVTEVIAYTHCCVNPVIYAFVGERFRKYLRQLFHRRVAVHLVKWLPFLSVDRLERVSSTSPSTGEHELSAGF
The experiment in a line: Cellular NanoBiT miniGi recruitment assay. In kind it is cell-based. The following applies: in the presence of CCL5 (3 nM). The method, then: Technologies) for 20 min.
Cellular NanoBiT miniGi recruitment assay s: Chemokine-induced Gi recruitment to the chemokine receptor CCR1 was monitored using a nanoluciferase complementation -based assay (NanoBiT, Promega). 20 5 x 10^6 HEK293T cells were plated in 10 cm dishes and cultured for 24 h before transfection with vectors encoding for the human chemokine receptor CCR1 C-terminally fused with SmBiT and miniGi (mG, engineered GTPase domain of Gα subunit) N-terminally fused with LgBiT. 24 h after transfection cells were harvested, distributed into white 96 -well plates (5 × 10^4 cells per well) and incubated for 1 h at 37 °C with compound 23 at concentrations ranging from 10 nM to 100 µM. The endogenous chemokine ligand CCL5 (3 nM, for CCR1) was then added, and luminescence generated upon nanoluciferase complementation in the presence of coelenterazine H was measured with a Mithras LB940 luminometer (Berthold Technologies) for 20 min. […]
Finally, the top 5% of the identified hits were subsequently docked to a homology model of CCR1 (vide infra). After visual examination of the obtained binding modes 24 hit compounds were identified for further investigation .
Molecular docking: For the docking studies in the course of our virtual screening campaign, the CCR1 protein was […]
27, 28 CCR1 structure was optimized using the Quickprep and structure preparation wizard in MOE 24 using CHARMM27 forcefield. The protein was saved in mol2 format and loaded in GOLD.25, 26 The amino acids defining the IABS were listed in a text file to define the docking cavity. 50 GA runs were performed for docking CCR2-RA-[R] (4-[R]) and SN_12 (43), with the generated solutions clustered based on their RMSD with the threshold set to 0.75 Å using the complete linkage method. Docking runs were performed using ChemScore. […]

Read-outs that look alike come from different tables or passages of the source.

As for `O=C(C1=C(O)C(=O)N(CCc2ccc(O)cc2)C1c1ccc(F)cc1)c1ccccc1` (racemic) [compound 23], the IC50 is 68.9 µM (read-out: IC50, miniGi recruitment) and 67.6 µM (read-out: pIC50, miniGi recruitment (converted)).

Values taken from PMC11249626, “Fluorophore-Labeled Pyrrolones Targeting the Intracellular Allosteric Binding Site of the Chemokine Receptor CCR1” (ACS Pharmacology & Translational Science, 2024).
